Experimental data from US20220062166A1, “Self-Gelling Solutions for Administration of Therapeutics to the Inner Ear” (Spiral Therapeutics, Inc., priority 2019, published 2022).
Entries after “also recorded” stand apart in the source; their conditions may differ.

Legend:
[1] = Toxicokinetic assessment in the acute IP toxicity study; format: in vivo, rat; details: all tested dose levels
Protocol: (§1) LPT99 was suspended in vehicle [0.5% w/v methylcellulose and 0.1% v/v TWEEN® 80 in Milli-Q water] and administered intraperitoneally to Sprague-Dawley rats as a single dose at the doses of 100 (low—G2/G2TK), 300 (mid—G3/G3TK), and 750 (high—G4/G4TK) mg/kg body weight. The rats in vehicle control groups (G1/G1TK) received the vehicle alone. The dose volume administered was at an equivolume of 10 mL/kg body weight for all groups.
(§2) The main toxicity groups consist of 15 rats/sex/group in G1 and G4 groups and 10 rats/sex/group in G2 and G3 groups. The toxicokinetic groups consisted of 6 males and 6 female rats each for the prevention groups, whereas the vehicle control group had 3 male and 3 female rats.
Gender related differences were observed.

HEI-OC1 cells = test: Release of mitochondrial cyt c in HEI-OC1 cells with CisPt (flow cytometry); format: cell-based
Protocol: Flow cytometry was also used to characterize the effect of LPT99 in the release of mitochondrial cyt c in HEI-OC1 cells in vitro with CisPt prevention. Results
(§3) The effect of LPT99 on proliferation of non-apoptotic cells was studied. A549 cells were cultured in the presence of LPT99 for up to 6 days; the cell number was monitored by flow cytometry, and doubling time was calculated.

[2] = GLP acute systemic toxicity study, single IP dose, Sprague-Dawley rats; format: in vivo, rat
Protocol: A GLP acute systemic toxicity study was conducted with LPT99 administered via IP injection in Sprague-Dawley rats. The acute systemic toxicity study was preceded by a non-GLP maximum tolerated dose (MTD) toxicity study, via the same administration and test system, which determined the MTD of LTP99 to be 1000 mg/kg.
as §1, §2

opioid kOP = test: Off-target panel: kOP; format: binding
Protocol: (§4) To identify off-target activities of LPT99, its selectivity against a panel of receptors (44 G-protein-coupled receptors [GPCR] and 4 non-GPCR), 4 ion channels, and 3 transporters were analyzed. The cell line, HEI-OC1 (house ear institute organ of Corti 1), which expresses several characteristic markers of the organ of Corti sensory cells (Kalinec, et al. , Audiol. Neurootol. 2003, 8(4), 177-89), was used to evaluate the efficacy of LPT99 in preventing apoptosis due to […]. Cells were pre-incubated with LPT99, followed by […] for 24 hours.
(§5) For 14 of the tested targets—adenosine receptor 3 (A3); cholecystokinin: cholecystokinin receptor 1 (CCK1); melatonin receptor (MT1); neurokinin (NK2 and NK3); opioid (kOP and mOP); serotonin receptors (5HT-1A, 5HT-2A, 5HT−2B and 5HT−7); and vasopressin (V1A; Na+channel site 2 and Cl-GABA-gated channel)—the LPT99 affinity was >50%. At 1 μM, the inhibition of 13 of these targets was <50%, indicating a very low affinity with LPT99.

[3] = Physical stability of drug product vials; format: physicochemical; details: vials stored at 4C
Protocol: Vials of the drug product were stored at either room temperature or 4° C. for a period greater than three months. To test the LPT99 concentration in vials, the liquid drug product was filtered through sterile 0.2 micron filters.

[4] = Plasma concentrations after TT administration of LPT99-CD in female Wistar rats; format: in vivo, rat
[5] = tested on: panel of receptors (44 GPCR and 4 non-GPCR), 4 ion channels, and 3 transporters; test: Off-target selectivity panel; format: binding; details: 10 μM
Protocol: as §4, §5

[6] = GLP auditory safety study in rats after single TT administration; details: rat, in vivo
Protocol: The study consisted of 10 groups of rats: 6 groups for toxicology (Groups 1 to 6, 20 males and 20 females per group), and 4 groups for toxicokinetics (Groups 7 to 10, 6 males and 6 females per group).
All animals were assessed weekly for body weights and qualitative food consumption. In addition, otoscopic evaluation of the dosing sites (tympanic membrane, Groups 1 to 6) and ABR testing for hearing function were performed at predosing; and on Days 1, 7, and/or 14. Animals in the toxicology groups (Groups 1 to 6) were sacrificed on Day 1 (10 males and 10 females per group) and Day 14 (the remaining 10 males and 10 females per group). At necropsy, terminal blood samples were tested for hematology, serum chemistry, and coagulation parameters. Gross observations were recorded, and selected organs were weighed. One ear per animal in Groups 1 to 5 was collected and processed for cytocochleogram assessment.

[7] = Cochlear and plasma distribution after TT administration in rats (UPLC-ESI/MS/MS); format: in vivo, rat
Description: Cochleae were harvested and rinsed at several timepoints after intratympanic injection of drug product. Drug concentration (y axis) in cochlear homogenates is expressed as nanograms LPT99 per gram of cochlear homogenate.
LPT99 cochlear distribution after TT administration was studied in rats. […] LPT99 concentration was quantified with an ultra-performance liquid chromatography tandem mass spectrometry (UPLC-ESI/MS/MS) system.
Distribution of LPT99 was investigated in cochlea and plasma after a single TT administration in rats. The inhibitor was administered at 50, 100, or 200 μM (dissolved in 5% hydroxypropyl cyclodextrin in physiological serum).

A549 cells = test: Proliferation of non-apoptotic A549 cells (flow cytometry, doubling time); format: cell-based; details: A549 cells cultured up to 6 days; reversible on removal
Protocol: as §3

SMILES: COc1ccc2[nH]cc(CCNC(=O)CC3C(=O)N(CCc4ccc(Cl)cc4Cl)CC(=O)N3CCc3cccs3)c2c1 (stereo not drawn) [LPT99, 2-(4-(2,4-dichlorophenethyl)-3,6-dioxo-1-(2-(thiophen-2-yl)ethyl)piperazin-2-yl)-N-(2-(5-methoxy-1H-indol-3-yl)ethyl)acetamide]
- exposure in females vs males [1]: 1.5-5.5 fold
- release of mitochondrial cyt c (HEI-OC1 cells; HEI-OC1 cells, after CisPt alone or pre-incubated with LPT99): 68.1% ±1.0%
- release of cyt c from mitochondria (HEI-OC1 cells; cellular model of CisPt-induced apoptosis): decreased release of cyt c from mitochondria
- food consumption ([2]; 750 mg/kg, males days 1-7, females days 1-4, vs control): statistically significant reduction in the food consumption
- tolerability ([2]; single IP 100, 300, 750 mg/kg): generally safe and well tolerated
- inhibition kOP (opioid kOP; 1 μM): < 50%
- affinity (inhibition) kOP (opioid kOP; 10 μM): > 50%
- time to LPT99 precipitation [3]: approximately 2 months
- plasma concentration of 3.2 nM as fraction of administered dose ([4]; 50 μM dose): 0.006%
- plasma concentration of 3.2 nM as fraction of administered dose ([4]; 100 μM dose): 0.003%
- plasma concentration of 3.2 nM as fraction of administered dose ([4]; 200 μM dose): 0.0016%
- plasma level after TT administration (not detectable; detection limit) ([4]; TT administration): < 3.2 nM
- Plasma LPT99 concentrations (BLLQ) ([4]; female Wistar rats, 1 hour and 2, 4, 7, 15 days after single 50 μL TT dose of 50, 100, or 200 μM LPT99-CD): < 2 ng/mL
- in vitro inhibition for 41 of the tested targets [5]: < 50%
- hair cell loss (cytocochleogram) [6]: no reliable evidence of test-article-related hair cell loss
- otoscopic scores (erythema, edema, wounds) of tympanic membranes [6]: no statistically significant changes
- detection in administered cochleae ([7]; 0.5 and 1 hour, 50, 100, or 200 μM in 5% hydroxypropyl cyclodextrin): detected in all administered cochleae
- LPT99 in plasma (not found; detection limit) ([7]; after TT administration of the LPT99 formulation in a hydrogel): < 2 ng/mL
- concentrations in contralateral cochleae and plasma ([7]; all time points, 50, 100, or 200 μM in 5% hydroxypropyl cyclodextrin): BLLQ
- LPT99 concentrations in plasma (BLLQ) ([7]; all time-points and doses): < 2 ng/mL
- LPT99 concentrations in the contralateral cochleae (BLLQ) ([7]; all time-points and doses): < 3 ng/g
- distribution to cochlea after TT administration ([7]; rats, FIG. 4): distributed locally to the cochlea; also recorded: distributed to cochlea in a dose-dependent manner
- distribution to contralateral cochleae or plasma ([7]; rats, TT): No distribution to the contralateral cochleae or plasma was observed
- effect on proliferation of non-apoptotic cells (A549 cells): delayed cellular proliferation by accumulation of cells at the G1 phase of the cell cycle
